Laboratory results as given in PMC3772825, “Development of Novel ^123I-Labeled Pyridyl Benzofuran Derivatives for SPECT Imaging of β-Amyloid Plaques in Alzheimer’s Disease” (PLoS ONE, 2013).
Read-outs that look alike come from different tables or passages of the source. Each block holds one compound with its values, some of them ahead of it.

Assays:
Aβ(1–42) aggregates = target: T1, Aβ(1–42) aggregates (Homo sapiens, UniProt P05067); experiment: In vitro binding assay with Aβ(1–42) aggregates, competition with [125I]IMPY; settings: mean ± SEM of three independent determinations; Cheng-Prusoff
T1 construct: Aβ(1–42) was purchased from the Peptide Institute (Osaka, Japan); purchased Peptide Institute (Osaka, Japan)
T1 sequence (P05067 672-713 limits assumed): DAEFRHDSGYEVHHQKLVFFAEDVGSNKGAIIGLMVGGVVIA
Description: Aggregation was carried out by gently dissolving the peptide (0.25 mg/mL) in a buffer solution (pH 7.4) containing 10 mM sodium phosphate and 1 mM EDTA. […] The mixture was then filtered through Whatman GF/B filters using a Brandel M-24 cell harvester, and the radioactivity of the filters containing the bound ^125I ligand was measured in a γ counter. Values for the half-maximal inhibitory concentration (IC50) were determined from displacement curves of three independent experiments using GraphPad Prism 5.0, and those for the inhibition constant (Ki) were calculated using the Cheng-Prusoff equation [26]: […]

[1] = Biodistribution in normal mice; assay type: in vivo, ddY mice; settings: for time of peak brain uptake: postinjection
Description: While under anesthesia with 2% isoflurane, ddY mice were injected directly into a tail vein with 100 µL of 10% EtOH containing ^125I-labeled pyridyl benzofuran derivatives (37 kBq). The mice (male, n = 5 for each time point) were sacrificed at 2, 10, 30, and 60 min postinjection. The organs of interest were removed and weighed, and radioactivity was measured with an automatic gamma counter (COBRAII; Packard). Percentage dose per organ was calculated by comparing the tissue counts to suitably diluted aliquots of the injected material. The %dose/g of samples was calculated by comparing the sample counts with the count of the diluted initial dose.

Aβ plaques [2] = experiment: In vitro autoradiography using human AD brain sections; assay type: binding; settings: postmortem human AD brain sections, 1 h at room temperature
Description: Postmortem brain tissues from an anonymous autopsy-confirmed case of AD (person) were obtained from the Graduate School of Medicine, Kyoto University. Six-micrometer-thick serial sections of paraffin-embedded blocks were used for in vitro autoradiography. The sections were incubated with ^125I-labeled tracers (444 kBq/50 µL) for 1 h at room temperature, then dipped in saturated Li2CO3 in 40% EtOH (two 2-min washes), washed with 40% EtOH (one 2-min wash), and rinsed with water for 30 s. After drying, the ^125I-labeled sections were exposed to a BAS imaging plate (Fuji Film) overnight. Autoradiographic images were obtained using a BAS5000 scanner system (Fuji Film). After autoradiographic examination, the same sections were immunostained using an amyloid β-protein immunohistochemical staining kit (Wako Pure Chemical Industries, Ltd.).

[3] = In vitro stability in mouse plasma; assay type: in vitro ADME; settings: incubation 1 h at 37°C, RP-HPLC
Description: [^125I]8 (11 kBq, […]) was added to the mouse plasma ([…]), and the plasma samples were incubated at 37°C for 1 h. After incubation, plasma samples were mixed with equal volumes of acetonitrile followed by centrifugation at 4,500 rpm for 10 min to remove the denatured proteins. The supernatant was filtrated using a 0.45 µm filter (Millipore; Billerica, MA, USA). Then, the filtrate was analyzed by RP-HPLC.

[4] = In vivo stability in normal mice (intact form in plasma by RP-HPLC); design: species or system ddY mice; settings: 30 min postinjection, i.v.
Description: [^125I]8 (0.11 MBq, 100 µL) was injected into the tail vein of ddY mice. The mice were sacrificed at 2, 10, and 30 min after the injection (male, n = 3 for each time point). The blood samples were centrifuged at 3,500 rpm for 10 min to separate plasma. Plasma samples were mixed with equal volumes of acetonitrile followed by centrifugation at 4,500 rpm for 10 min to remove the denatured proteins. The supernatant was filtrated using 0.45 µm filter (Millipore; Billerica, MA, USA). Then, the filtrate was analyzed by RP-HPLC.

Aβ plaques [5] = target: T2, Aβ plaques (Homo sapiens, UniProt P05067); experiment: Small-animal SPECT/CT in Tg2576 and wild-type mice; assay type: in vivo, Tg2576 transgenic mice; settings: average ± SD
T2 sequence (P05067 672-711 limits assumed): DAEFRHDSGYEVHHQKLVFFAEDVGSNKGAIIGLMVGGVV
Description: Dynamic SPECT scans were performed on a dedicated small-animal SPECT scanner (FX3300, Gamma Medica-Ideas). Tg2576 transgenic mice (28 months, female, n = 3) and wild-type mice (28 months, female, n = 3) were used as an Alzheimer’s model and an age-matched control, respectively. Briefly, the animals were initially anesthetized with 2% isoflurane. When fully anesthetized, an animal was placed on the scanner bed, with a nose cone used to maintain anesthesia with 2% isoflurane throughout the experiment. [^123I]8 (20.5–26.5 MBq) in 10% aqueous EtOH solution containing 0.1% Tween80 was injected into a tail vein. Dynamic data were acquired over a period of 60 min after the injection, followed by the acquisition of CT data over a period of 5 min. The SPECT data were reconstructed using a 3-dimensional ordered subsets expectation maximization (3D OSEM) algorithm (5 iteration, 8 subsets). The SPECT scan time was sorted by a 30-s time frame in each 1-min interval (total, 60 frames for a total scan time of 60 min). […] For statistical analyses, regions of interest (ROIs) were manually placed over the frontal cortex (FR) and cerebellum (CE) on the summed SPECT images of [^123I]8 in Tg2576 (n = 3) and wild-type (n = 3) mice. Identification of anatomical structures was guided by the stereotaxic mouse brain atlas. […]

Aβ plaques [6] = target: T2, Aβ plaques; experiment: Ex vivo autoradiography of transgenic mouse brain; settings: brains of Tg2576 mice after SPECT/CT; not in the wild-type control
Source text: The animals were killed by decapitation after the SPECT analysis. Brains were immediately removed and frozen in a dry ice/hexane bath. Sections of 20 µm were cut and exposed to a BAS imaging plate (Fuji Film, Tokyo, Japan) overnight. Ex vivo film autoradiograms were thus obtained. After autoradiographic examination, the same sections were stained by thioflavin-S to confirm the presence of Aβ plaques. For staining with thioflavin-S, sections were immersed in a 0.125% thioflavin-S solution containing 50% EtOH for 5 min and washed in 50% EtOH. After drying, the sections were examined using a microscope (Eclipse 80i; Nikon) equipped with a B-2A filter set (excitation, 450–490 nm; diachronic mirror, 505 nm; long-pass filter, 520 nm).

[7] = design: method as in PMID 17210465; settings: ref [31]; cited from earlier work

Ki (Aβ(1–42) aggregates): 10.3 ± 1.48 nM | time of peak brain uptake ([1]; i.v.): 10 min | brain2min/brain60 min ratio ([1]; washout from the brain): 1.30
SMILES: Nc1ccc(-c2cc3cc(I)ccc3o2)cn1 [Compound 7, 5-(5-Iodobenzofuran-2-yl)pyridin-2-amine]
in vitro autoradiography of AD brain sections (Aβ plaques [2]): nonspecific binding in white matter

Ki (Aβ(1–42) aggregates): 2.94 ± 0.22 nM | radioactivity existing as intact form in mouse plasma [3]: 77.4% | percent of the intact form in plasma after injection [4]: 20.7% | brain radioactivity at 60 min postinjection ([1]; i.v., 60 min): 1.30 %ID/g | time of peak brain uptake ([1]; i.v.): 2 min | mean FR/CE ratio (frontal cortex to cerebellum), SPECT (Aβ plaques [5]; Tg2576 mice (n = 3)): 1.34±0.07 | mean FR/CE ratio (frontal cortex to cerebellum), SPECT (Aβ plaques [5]; wild-type mice (n = 3)): 1.01±0.03 | ex vivo autoradiography, labeling of Aβ plaques (Aβ plaques [6]): extensive labeling of Aβ plaques
SMILES: CNc1ccc(-c2cc3cc(I)ccc3o2)cn1 [Compound 8, 5-(5-Iodobenzofuran-2-yl)-N-methylpyridin-2-amine]

Ki (Aβ(1–42) aggregates): 2.36 ± 0.53 nM | time of peak brain uptake ([1]; i.v.): 10 min
SMILES: CN(C)c1ccc(-c2cc3cc(I)ccc3o2)cn1 [Compound 9, 5-(5-Iodobenzofuran-2-yl)-N,N-dimethylpyridin-2-amine]

SMILES: CNc1ccc(/C=C/c2ccc(OCCOCCOCC[18F])nc2)cc1 [[^18F]AV-45, (E)-4-(2-(6-(2-(2-(2-[^18F]fluoroethoxy)ethoxy)ethoxy)pyridin-3-yl)vinyl)-N-methylaniline]
brain2min/brain60 min ratio [7]: 3.8
